From PubChem BioAssay AID2060604 (Molecular Pharmacology Branch, DTP, NCI, 2025) come the findings set out here.

The test system of the experiment is 379773-124-R-J2-PDC complex spheroids, viability % test/control. Description: Anticancer human tumor 379773-124-R-J2-PDC patient-derived endometrial carcinoma cell line growth inhibition [CLK]. The following applies: for viability, T/C: stronger effect = lower value. Summed up: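 Patient-derived tumor cells grown as complex spheroids with HUVEC endothelial cells and mesenchymal stem cells, treated with drug combinations. Concentrations descend in half-log steps from near clinical Cmax, or from 10 microM if Cmax unknown.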

“And” between values parts separate entries of the source, which are not always exact repeats. Identical values can stand only once.
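Also: compound exposure lasted seven days before the viability readout.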
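For viability, T/C in this document: 100% = DMSO vehicle control wells.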

In the case of `CC(C)CC(NC(=O)C(Cc1ccccc1)NC(=O)c1cnccn1)B(O)O` (configuration not stated), the viability, T/C (in general, the result in the treated group divided by that in the control group, in per cent) is, setting by setting: (compound 0.000949 µM) 83.2% and 77.4%; (compound 0.003 µM) 25.8% and 11.7%; (compound 0.00949 µM) 0.16% and 0.15%; (compound 0.03 µM) 0.22% and 0.21%; (compound 0.0949 µM) 0.19% and 0.16%; (compound 0.3 µM) 0.09% and 0.12%. Also, the half-maximal inhibitory concentration (IC50) – broadly, the point on the concentration scale where inhibition reaches its midpoint – (curve of compound) was 1.85 nM and 1.53 nM.
